Experimental data: publication doi:10.1101/2024.02.16.580709v1, “Developing Hybrid Systems to Address O2 Uncoupling in Multi-Component Rieske Oxygenases” (biorxiv, 2024)

What was measured:
Assay type in all cases: biochemical
[1] = target: T1, PDR (Burkholderia cepacia, UniProt P33164); assay: ABTS-HRP assay of H2O2 formed; details: 24 h; GDH-based NADH regeneration; O2 uncoupling, no ferredoxin
T1 construct: gene ophA1; codon-optimised gene in pET-28a(+), N-terminal 6xHis tag, E. coli JM109(DE3), Ni-sepharose purified; flavin and [2Fe-2S] domains
T1 sequence (P33164 2-322): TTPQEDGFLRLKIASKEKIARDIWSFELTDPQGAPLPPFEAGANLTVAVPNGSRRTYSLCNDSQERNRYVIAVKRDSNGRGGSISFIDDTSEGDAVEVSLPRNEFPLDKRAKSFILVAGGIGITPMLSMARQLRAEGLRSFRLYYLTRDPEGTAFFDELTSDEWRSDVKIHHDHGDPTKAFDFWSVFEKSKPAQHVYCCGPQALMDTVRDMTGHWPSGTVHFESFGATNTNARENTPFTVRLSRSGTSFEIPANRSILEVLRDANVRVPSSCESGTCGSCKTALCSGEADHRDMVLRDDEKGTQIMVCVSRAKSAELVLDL

[2] = target: T2, VanB (Pseudomonas aeruginosa, UniProt Q9HUQ8); assay: ABTS-HRP assay of H2O2 formed; details: 24 h; GDH-based NADH regeneration; O2 uncoupling, no ferredoxin
T2 construct: codon-optimised gene in pET-28a(+), N-terminal 6xHis tag, E. coli JM109(DE3), Ni-sepharose purified; flavin and [2Fe-2S] domains
T2 sequence (Q9HUQ8 1-317): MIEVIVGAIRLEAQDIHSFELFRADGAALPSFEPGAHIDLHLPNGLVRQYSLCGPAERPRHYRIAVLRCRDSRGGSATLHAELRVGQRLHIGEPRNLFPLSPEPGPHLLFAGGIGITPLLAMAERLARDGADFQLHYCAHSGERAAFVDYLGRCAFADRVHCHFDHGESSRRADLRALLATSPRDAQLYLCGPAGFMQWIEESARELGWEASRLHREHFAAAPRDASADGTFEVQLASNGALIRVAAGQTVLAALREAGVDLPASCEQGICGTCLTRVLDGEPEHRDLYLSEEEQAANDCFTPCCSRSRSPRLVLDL

[3] = target: T3, CDO (CDO-WT; CDO-Oxy with CDO-Fd and CDO-Red) (Pseudomonas fluorescens, UniProt Q51743); assay: GC-FID product quantification; details: 30 °C, 24 h, pH 7.2; NAD+ with GDH/glucose NADH regeneration, catalase, 1 mM DTT; O2
T3 construct: gene cumA1; codon-optimised genes in pET-28a(+), N-terminal 6xHis tag, E. coli JM109(DE3), Ni-sepharose purified; components mixed in vitro; with Cumene dioxygenase terminal oxygenase small (beta) subunit; Cumene dioxygenase ferredoxin; Cumene dioxygenase ferredoxin reductase
T3 sequence (Q51743 1-459): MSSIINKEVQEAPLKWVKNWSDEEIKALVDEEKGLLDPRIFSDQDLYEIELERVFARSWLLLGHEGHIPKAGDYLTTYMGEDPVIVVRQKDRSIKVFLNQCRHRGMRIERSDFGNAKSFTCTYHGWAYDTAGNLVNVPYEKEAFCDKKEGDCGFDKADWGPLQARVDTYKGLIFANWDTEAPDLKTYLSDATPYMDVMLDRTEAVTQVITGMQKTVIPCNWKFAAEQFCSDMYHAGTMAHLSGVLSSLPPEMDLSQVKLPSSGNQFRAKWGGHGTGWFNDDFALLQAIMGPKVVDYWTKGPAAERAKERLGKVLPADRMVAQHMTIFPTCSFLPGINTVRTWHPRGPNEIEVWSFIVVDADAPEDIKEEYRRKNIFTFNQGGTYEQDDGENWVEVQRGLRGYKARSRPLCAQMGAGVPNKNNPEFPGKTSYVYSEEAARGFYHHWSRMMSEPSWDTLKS
T3 sequence (Q51744 1-186 partner): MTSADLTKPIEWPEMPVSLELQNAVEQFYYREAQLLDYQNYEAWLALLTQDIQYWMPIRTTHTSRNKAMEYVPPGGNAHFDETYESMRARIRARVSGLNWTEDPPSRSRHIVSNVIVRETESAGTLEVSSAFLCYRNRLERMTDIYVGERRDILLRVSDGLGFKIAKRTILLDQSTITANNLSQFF

| SMILES | ABTS-HRP assay of H2O2 formed [1] | ABTS-HRP assay of H2O2 formed [2] | GC-FID product quantification [3] |
| --- | --- | --- | --- |
| NC(=O)C1=CN([C@@H]2O[C@H](COP(=O)(O)OP(=O)(O)OC[C@H]3O[C@@H](n4cnc5c(N)ncnc54)[C@H](O)[C@@H]3O)[C@@H](O)[C@H]2O)C=CC1 [NADH] | the H2O2 formation by PDR and VanB was evaluated analogously | the H2O2 formation by PDR and VanB was evaluated analogously | – |
| C1=Cc2ccccc2C1 [compound 1, indene] | – | – | product formation in in vitro reactions with complete CDO-WT |
